For one compound, IC50 results are on record in PMC11665983, “Inhibition of CFTR-mediated intestinal chloride secretion by nornidulin: Cellular mechanisms and anti-secretory efficacy in human intestinal epithelial cells and human colonoids” (PLOS ONE, 2024).

The assay addresses cystic fibrosis transmembrane conductance regulator (CFTR) (Homo sapiens, UniProt P13569). The assay is described as follows: CPT-cAMP-stimulated apical chloride current in basolaterally permeabilized T84 monolayers (endogenous CFTR); genistein-stimulated current also inhibited (IC50 […]). The format is cell-based.

Sequence of cystic fibrosis transmembrane conductance regulator (CFTR) (P13569 whole entry): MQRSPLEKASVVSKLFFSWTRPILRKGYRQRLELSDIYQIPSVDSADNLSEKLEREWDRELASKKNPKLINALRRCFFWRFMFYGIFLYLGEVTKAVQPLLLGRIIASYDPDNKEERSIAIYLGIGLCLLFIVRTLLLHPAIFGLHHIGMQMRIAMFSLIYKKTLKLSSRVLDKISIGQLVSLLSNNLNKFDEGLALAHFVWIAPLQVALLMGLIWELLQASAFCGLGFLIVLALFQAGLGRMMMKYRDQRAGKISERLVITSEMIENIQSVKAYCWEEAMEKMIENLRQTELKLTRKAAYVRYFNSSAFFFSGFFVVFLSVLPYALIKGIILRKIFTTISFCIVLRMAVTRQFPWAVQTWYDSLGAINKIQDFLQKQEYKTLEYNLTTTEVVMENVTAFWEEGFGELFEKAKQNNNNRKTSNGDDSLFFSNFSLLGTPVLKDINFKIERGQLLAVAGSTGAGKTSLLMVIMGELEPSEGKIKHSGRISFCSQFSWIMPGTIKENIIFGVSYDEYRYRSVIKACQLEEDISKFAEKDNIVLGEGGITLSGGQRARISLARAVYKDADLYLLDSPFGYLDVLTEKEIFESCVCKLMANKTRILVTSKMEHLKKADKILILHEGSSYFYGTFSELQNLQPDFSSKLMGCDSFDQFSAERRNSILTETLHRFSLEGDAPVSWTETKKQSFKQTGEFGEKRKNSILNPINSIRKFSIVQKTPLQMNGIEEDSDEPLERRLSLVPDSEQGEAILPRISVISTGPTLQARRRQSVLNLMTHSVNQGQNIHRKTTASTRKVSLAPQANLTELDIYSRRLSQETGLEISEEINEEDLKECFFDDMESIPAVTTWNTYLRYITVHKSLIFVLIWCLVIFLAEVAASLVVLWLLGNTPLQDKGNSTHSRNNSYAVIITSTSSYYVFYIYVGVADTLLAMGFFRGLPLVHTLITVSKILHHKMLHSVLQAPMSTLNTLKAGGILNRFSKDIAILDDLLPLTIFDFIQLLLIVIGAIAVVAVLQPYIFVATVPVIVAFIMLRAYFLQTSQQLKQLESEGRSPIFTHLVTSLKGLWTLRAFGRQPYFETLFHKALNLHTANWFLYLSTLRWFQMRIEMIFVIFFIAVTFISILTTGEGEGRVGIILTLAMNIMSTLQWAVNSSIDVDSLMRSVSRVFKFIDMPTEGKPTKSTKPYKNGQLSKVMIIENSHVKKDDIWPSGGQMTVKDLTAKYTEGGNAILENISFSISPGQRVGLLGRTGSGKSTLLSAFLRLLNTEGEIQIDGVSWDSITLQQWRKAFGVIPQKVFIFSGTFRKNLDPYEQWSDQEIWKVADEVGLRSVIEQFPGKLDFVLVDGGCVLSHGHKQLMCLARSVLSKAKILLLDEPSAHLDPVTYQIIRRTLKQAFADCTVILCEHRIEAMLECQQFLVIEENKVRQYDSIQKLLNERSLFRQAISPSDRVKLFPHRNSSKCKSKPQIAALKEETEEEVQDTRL

What is called IC50 is the midpoint of a concentration-inhibition curve. A high value points to weaker potency in that assay. As for `C/C=C(\C)c1c(Cl)c(O)c(C)c2c1Oc1c(Cl)c(O)c(Cl)c(C)c1C(=O)O2` [N9, nornidulin], inhibition was half-maximal at 1030 ± 130 nM (IC50).
